From PubChem BioAssay AID720646 (Broad Institute, 2013)
The source made the active and inactive calls.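 Rule for the calls: active = fitted rise in melting shift crosses a set limit at or below the top valid dose tested; inconclusive = flat fit at mid-level activity, or a poor quality fit; inactive = the rest.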

molecular target: Fibroblast growth factor 22 (Homo sapiens) (UniProt Q9HCT0); test: FGF22 melting temperature shift by ligands – biophysical, thermal shift, cherry-pick retest, FGF22 synaptogenesis inhibitor project, dose response (AID 720646); conditions: recombinant FGF22 thermal shift, SYPRO orange fluorescence
Sequence (Q9HCT0 whole entry, looked up): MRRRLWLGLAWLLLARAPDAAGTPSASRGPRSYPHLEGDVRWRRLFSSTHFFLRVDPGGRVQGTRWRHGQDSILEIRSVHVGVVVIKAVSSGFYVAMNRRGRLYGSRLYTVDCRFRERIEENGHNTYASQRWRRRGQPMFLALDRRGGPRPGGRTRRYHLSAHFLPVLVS

Question: For `CC(C)c1c(C(=O)N/N=C/c2c[nH]c3ccccc23)nnn1-c1nonc1N`, which AC is on record?
Answer: 27.4 µM

Question: With `O=C(N/N=C/c1c[nH]c2ccccc12)c1cccs1` as the compound, how does the AC read?
Answer: 23.4 µM

Question: Which AC does the source give for `COc1ccc(/C=N/Nc2ccc([N+](=O)[O-])cc2)cc1O` here?
Answer: 36.6 µM

Question: How did the AC turn out when `C[C@@H]1CN([C@H](C)CO)C(=O)Cc2cc(N(C)C)ccc2O[C@@H]1CN(C)Cc1ccc(Cl)c(Cl)c1` was run?
Answer: 37.3 µM

Question: For `O=C(Nc1ccc(S(=O)(=O)N2CCOCC2)cc1)c1ccc(F)cc1`, which AC is on record?
Answer: > 38 µM (inactive)

Question: For `CNC[C@H]1Oc2ccc(NC(=O)Cc3cn(C)c4ccccc34)cc2C(=O)N([C@H](C)CO)C[C@H]1C`, which AC is on record?
Answer: > 42 µM (inactive)

Question: `Cc1cc(C)cc(NC(=O)CN2C(=O)NC(Cc3c[nH]c4ccccc34)C2=O)c1` (centres undefined) was tested. Which AC did it give?
Answer: > 38 µM (inactive)

Question: With `N#Cc1ccc(NC(=O)Nc2cccc(C#N)c2)cc1` as the compound, how does the AC read?
Answer: 30.1 µM

Question: With `O=S1(=O)N=C(N(Cc2cccs2)c2ccc(O)cc2)c2ccccc21` as the compound, how does the AC read?
Answer: 20.4 µM

Question: Which AC does the source give for `Cc1[nH]c2ccc(C(=O)OCC(=O)Nc3cccc(S(N)(=O)=O)c3)cc2c1C` here?
Answer: 10.1 µM

Question: How did the AC turn out when `COC(=O)C(C)Oc1cc(OC(C)C(=O)OC)c2c(C)c(Cl)c(=O)oc2c1` (centres undefined) was run?
Answer: > 38 µM (inactive)

Question: How did the AC turn out when `O=C(N[C@H]1C=C[C@H](CC(=O)N2CCCCC2)O[C@H]1CO)c1cccc(F)c1` was run?
Answer: 35.5 µM

Question: `Cc1ccc(NC(=O)c2ccc(OCc3c(C)noc3C)cc2)c(C)c1` was tested. Which AC did it give?
Answer: 34.2 µM

Question: Which AC does the source give for `CSc1ccc(/C=N/NC(=O)c2ccc3nc[nH]c3c2)cc1` here?
Answer: 37.7 µM

Question: `CCC(=O)Nc1nc(C)c(-c2csc(Nc3ccccn3)n2)s1` was tested. Which AC did it give?
Answer: 21.6 µM

Question: For `CC(=O)Nc1cccc(C(=O)N/N=C/c2c[nH]c3ccccc23)c1`, which AC is on record?
Answer: 13.7 µM

Question: `O=C(Cc1n[nH]c(=O)[nH]c1=O)N/N=C/c1c(O)ccc2ccccc12` was tested. Which AC did it give?
Answer: > 38 µM (inactive)

Question: For `O=C(N/N=C\c1c[nH]c2ccccc12)c1ccc(O)cc1`, which AC is on record?
Answer: 16.8 µM

Question: For `COc1ccc(N2CCN(CCOc3ccc4c(C)cc(=O)oc4c3)CC2)cc1`, which AC is on record?
Answer: > 38 µM (inactive)

Question: Which AC does the source give for `CC1(C(=O)NS(=O)(=O)Cc2cccc(Cl)c2)CCN1C(=O)C1(c2ccc(Cl)cc2)CCC1` (centres undefined) here?
Answer: 24.4 µM

Question: With `O=C(N/N=C/c1c[nH]c2ccccc12)c1cccc(Cl)c1` as the compound, how does the AC read?
Answer: 27.9 µM

Question: For `COc1ccc(NC(=O)CCCN2C(=O)CN(C)C2=O)c(OC)c1`, which AC is on record?
Answer: > 38 µM (inactive)

Question: How did the AC turn out when `CC1([N+](=O)[O-])COP(=O)(NC2CC2)OC1` (centres undefined) was run?
Answer: 21.5 µM

Question: How did the AC turn out when `Nc1nnc(CC(=O)N/N=C/c2cc([N+](=O)[O-])cc(Br)c2O)s1` was run?
Answer: 24.7 µM

Question: `O=C(CC1SC(=O)NC1=O)Nc1ccc(Cl)cc1` (centres undefined) was tested. Which AC did it give?
Answer: 33.2 µM

Question: Which AC does the source give for `Cc1onc(-c2ccccc2)c1C(=O)Nc1ncc([N+](=O)[O-])s1` here?
Answer: 34 µM

Question: For `O=S(=O)(Nc1nnc(C(F)(F)F)s1)c1ccc(Cl)cc1`, which AC is on record?
Answer: 37.5 µM

Question: With `C[C@@H]1CN([C@@H](C)CO)S(=O)(=O)c2ccc(-c3cccc(C#N)c3)cc2O[C@@H]1CN(C)C(=O)Nc1cc(F)ccc1F` as the compound, how does the AC read?
Answer: > 38 µM (inactive)

Question: Which AC does the source give for `CCC(CC)CN1CCC(CN2C(=O)C(=O)NC[C@@H]2CC(C)C)CC1` here?
Answer: > 38 µM (inactive)

Question: For `NC(=O)c1ccsc1NC(=O)COC(=O)Cc1c[nH]c2ccccc12`, which AC is on record?
Answer: 27.6 µM

Question: For `CC1C=NC(S(=O)(=O)N2CC[C@@H]3[C@@H](CO)N(C)c4ccc(-c5ccc(F)cc5)cc4[C@@H]32)=N1` (some centres undefined), which AC is on record?
Answer: > 38 µM (inactive)

Question: How did the AC turn out when `O=C(O)c1[nH]c2ccc(Br)cc2c1CCN1C(=O)c2cccc([N+](=O)[O-])c2C1=O` was run?
Answer: > 38 µM (inactive)

Question: `Cc1cc(C(=O)N/N=C/c2c[nH]c3ccccc23)cs1` was tested. Which AC did it give?
Answer: 30.3 µM

Question: With `Cn1c(=O)c2c(-c3ccccc3)n(-c3cc(Cl)c([N+](=O)[O-])cc3O)cc2n(C)c1=O` as the compound, how does the AC read?
Answer: 28.3 µM
